Laboratory results taken from ChEMBL document CHEMBL3865823, “Ameliorative effects of amide derivatives of 1,3,4-thiadiazoles on scopolamine induced cognitive dysfunction” (Eur J Med Chem, 2016).

Assays:
[1] = target: T1, Acetylcholinesterase (Mus musculus, UniProt P21836); assay: Uncompetitive inhibition of albino mouse brain AChE using acetylthiocholine iodide as substrate measured up to 2 mins by Ellmans method
T1 sequence (P21836 whole entry): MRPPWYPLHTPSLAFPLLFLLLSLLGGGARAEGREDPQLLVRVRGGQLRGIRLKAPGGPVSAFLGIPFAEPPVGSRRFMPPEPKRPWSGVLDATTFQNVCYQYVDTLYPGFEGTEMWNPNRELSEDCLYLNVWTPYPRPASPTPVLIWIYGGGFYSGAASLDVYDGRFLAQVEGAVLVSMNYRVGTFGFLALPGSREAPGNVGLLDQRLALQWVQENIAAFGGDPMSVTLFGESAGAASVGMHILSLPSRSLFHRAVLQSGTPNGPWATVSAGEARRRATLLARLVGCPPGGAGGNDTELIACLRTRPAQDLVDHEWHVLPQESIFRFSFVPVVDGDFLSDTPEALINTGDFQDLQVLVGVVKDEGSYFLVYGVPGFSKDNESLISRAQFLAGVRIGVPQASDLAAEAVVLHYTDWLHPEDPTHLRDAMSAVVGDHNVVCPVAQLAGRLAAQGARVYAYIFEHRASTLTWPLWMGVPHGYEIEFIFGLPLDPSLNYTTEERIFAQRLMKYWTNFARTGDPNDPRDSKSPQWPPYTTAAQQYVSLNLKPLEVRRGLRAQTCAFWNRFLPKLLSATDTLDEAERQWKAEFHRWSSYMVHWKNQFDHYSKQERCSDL

[2] = target: T1, Acetylcholinesterase; assay: Inhibition of albino mouse brain AChE using acetylthiocholine iodide as substrate measured for 2 mins by Ellmans method; format: tissue-based
[3] = test system: Mus musculus; assay: Antiamnesic activity against scopolamine-induced memory loss in albino mouse assessed as escape latency time at 0.5 mg/kg, ip administered 5 mins post scopolamine-challenge and 35 mins prior to training measured on day 5 by Morris water maze test (reference value: 84.92 +/- 1.64 sec); format: functional
[4] = test system: Mus musculus; assay: Antiamnesic activity against scopolamine-induced memory loss in albino mouse assessed as latency to reach shock free zone at 0.5 mg/kg, ip administered 5 mins post scopolamine-challenge and 35 mins prior to training by passive avoidance test (reference value: 53.25 +/- 1.37 sec); format: functional
[5] = test system: Mus musculus; assay: Antiamnesic activity against scopolamine-induced memory loss in albino mouse assessed as escape latency time at 0.5 mg/kg, ip administered 5 mins post scopolamine-challenge and 35 mins prior to training measured on day 1 by Morris water maze test (reference value: 89.67 +/- 0.23 sec); format: functional
[6] = test system: Mus musculus; assay: Inhibition of scopolamine-induced increase in AchE level in albino mouse assessed as AChE level in brain at 0.5 mg/kg, ip administered 5 mins post scopolamine-challenge using acetlythiocholine iodidie as substrate by Ellman's method (reference value: 0.011 +/- 0.0022 umol/min/mg); format: functional
[7] = test system: Mus musculus; assay: Antiamnesic activity against scopolamine-induced memory loss in albino mouse assessed as number of mistakes at 0.5 mg/kg, ip administered 5 mins post scopolamine-challenge and 35 mins prior to training by passive avoidance test (reference value: 12.25 +/- 0.47); format: functional
[8] = test system: Mus musculus; assay: Neuroprotective activity against scopolamine-induced oxidative damage in albino mouse assessed as nitrite level in plasma at 0.5 mg/kg, ip administered 5 mins post scopolamine-challenge by Greiss assay (reference value: 483.5 +/- 27.1 ug/ml); format: functional
[9] = test system: Mus musculus; assay: Antiamnesic activity against scopolamine-induced memory loss in albino mouse assessed as basal latency to reach shock free zone at 0.5 mg/kg, ip administered 5 mins post scopolamine-challengen and 35 mins prior to training by passive avoidance test (reference value: 40.25 +/- 2.84 sec); format: functional
[10] = test system: Mus musculus; assay: Neuroprotective activity against scopolamine-induced oxidative damage in albino mouse assessed as superoxide dismutase level in brain at 0.5 mg/kg, ip administered 5 mins post scopolamine-challenge measured at every 30 to 60 secs interval for 2 mins by NBT reduction assay (reference value: 0.17 +/- 0.03 U/mg); format: functional
[11] = test system: Mus musculus; assay: Antiamnesic activity against scopolamine-induced memory loss in albino mouse assessed as escape latency time at 0.5 mg/kg, ip administered 5 mins post scopolamine-challenge and 35 mins prior to training measured on day 2 by Morris water maze test (reference value: 89.41 +/- 0.39 sec); format: functional
[12] = test system: Mus musculus; assay: Antiamnesic activity against scopolamine-induced memory loss in albino mouse assessed as escape latency time at 0.5 mg/kg, ip administered 5 mins post scopolamine-challenge and 35 mins prior to training measured on day 4 by Morris water maze test (reference value: 87.17 +/- 1.03 sec); format: functional
[13] = test system: Mus musculus; assay: Antiamnesic activity against scopolamine-induced memory loss in albino mouse assessed as escape latency time at 0.5 mg/kg, ip administered 5 mins post scopolamine-challenge and 35 mins prior to training measured on day 3 by Morris water maze test (reference value: 88.33 +/- 0.95 sec); format: functional
[14] = test system: Mus musculus; assay: Antiamnesic activity against scopolamine-induced memory loss in albino mouse assessed as time spent in target quadrant at 0.5 mg/kg, ip administered 5 mins post scopolamine-challenge and 35 mins prior to training measured on day 5 by Morris water maze test (reference value: 4 +/- 1.15 sec); format: functional
[15] = target: T1, Acetylcholinesterase; assay: Competitive inhibition of albino mouse brain AChE using acetylthiocholine iodide as substrate measured up to 2 mins by Ellmans method
[16] = test system: Mus musculus; assay: Neuroprotective activity against scopolamine-induced oxidative damage in albino mouse assessed as catalase activity by measuring H2O2 decomposition per mg of protein at 0.5 mg/kg, ip administered 5 mins post scopolamine-challenge (reference value: 1.37 +/- 0.25 micromol/min); format: functional
[17] = test system: Mus musculus; assay: Neuroprotective activity against scopolamine-induced oxidative damage in albino mouse assessed as glutathione reductase level in brain measured per mg of protein at 0.5 mg/kg, ip administered 5 mins post scopolamine-challenge by Ellamns assay (reference value: 0.008 +/- 0.001 umol); format: functional
[18] = test system: Mus musculus; assay: Neuroprotective activity against scopolamine-induced oxidative damage in albino mouse assessed as lipid peroxidation in brain by measuring MDA level per mg protein at 0.5 mg/kg, ip administered 5 mins post scopolamine-challenge by TBARS assay (reference value: 2.73 +/- 0.36 mol); format: functional

Row | SMILES | Ki [1] | IC50 [2] | Time [3] | Time [4] | Time [5] | Activity [6] | Activity [7] | Activity [8] | Time [9] | Activity [10] | Time [11] | Time [12] | Time [13] | Time [14] | Ki [15] | Activity [16] | Activity [17] | Activity [18]
1 | CC(=O)Oc1cccc(C(=O)Nc2nnc(-c3ccc(C)cc3)s2)c1 | 3.77 µM | 10.8 µM | – | – | – | – | – | – | – | – | – | – | – | – | – | – | – | –
2 | O=C(Nc1nnc(-c2ccccc2Cl)s1)c1cc(C(F)(F)F)cc(C(F)(F)F)c1 | – | 2.74 µM | 21.67 s | 4.5 s | 89.75 s | 0.002 µmol/min/mg | 3 | 291.8 µg/mL | 30.75 s | 5.87 U/mg | 84.25 s | 52.92 s | 73.75 s | 25.33 s | 0.97 µM | 2.79 µmol/min | 0.016 µmol | 0.73 nmol
3 | Cc1ccc(-c2nnc(NC(=O)c3cccc(CCl)c3)s2)cc1 | – | 12.6 µM | – | – | – | – | – | – | – | – | – | – | – | – | 3.84 µM | – | – | –
4 | O=C(Nc1nnc(Cc2ccccc2)s1)c1cccc(CCl)c1 | 5.06 µM | 20.3 µM | – | – | – | 0.003 µmol/min/mg | – | 324.8 µg/mL | – | 5.26 U/mg | – | – | – | – | – | 1.74 µmol/min | 0.01 µmol | 0.98 nmol
5 | Cc1ccc(-c2nnc(NC(=O)CC(C)CC(C)(C)C)s2)cc1 (stereo unspecified) | 8.36 µM | 23.7 µM | – | – | – | – | – | – | – | – | – | – | – | – | – | – | – | –
6 | CC(CC(=O)Nc1nnc(-c2cccc(Cl)c2)s1)CC(C)(C)C (stereo unspecified) | 2.67 µM | 13.7 µM | – | – | – | – | – | – | – | – | – | – | – | – | – | – | – | –
7 | CC(=O)Oc1cccc(C(=O)Nc2nnc(-c3ccccc3)s2)c1 | – | 3.78 µM | – | – | – | – | – | – | – | – | – | – | – | – | 0.91 µM | – | – | –
8 | CC(CC(=O)Nc1nnc(-c2ccccc2)s1)CC(C)(C)C (stereo unspecified) | 7.6 µM | 23.7 µM | – | – | – | – | – | – | – | – | – | – | – | – | – | – | – | –
9 | CC(=O)Oc1cccc(C(=O)Nc2nnc(Cc3ccccc3)s2)c1 | 5.67 µM | 11.6 µM | – | – | – | – | – | – | – | – | – | – | – | – | – | – | – | –
10 | Cc1ccc(-c2nnc(NC(=O)c3cc(C(F)(F)F)cc(C(F)(F)F)c3)s2)cc1 | 3.77 µM | 7.09 µM | – | – | – | 0.003 µmol/min/mg | – | 306.5 µg/mL | – | 5.23 U/mg | – | – | – | – | – | 2.69 µmol/min | 0.012 µmol | 1.09 nmol
11 | CC(CC(=O)Nc1nnc(Cc2ccccc2)s1)CC(C)(C)C (stereo unspecified) | 3.99 µM | 27.1 µM | – | – | – | – | – | – | – | – | – | – | – | – | – | – | – | –
12 | O=C(Nc1nnc(-c2ccccc2)s1)c1cccc(CCl)c1 | 0.85 µM | 4.09 µM | – | – | – | 0.004 µmol/min/mg | – | 268.5 µg/mL | – | 5.95 U/mg | – | – | – | – | – | 2.67 µmol/min | 0.012 µmol | 0.67 nmol
13 | CCN(C)C(=O)Oc1cccc([C@H](C)N(C)C)c1 [RIVASTIGMINE] | – | – | 34.08 s | 12.25 s | 89.75 s | 0.005 µmol/min/mg | 8.75 | 418.2 µg/mL | 37.08 s | 4.24 U/mg | 83.83 s | 54.58 s | 72.92 s | 15 s | – | 1.88 µmol/min | 0.014 µmol | 2.34 nmol
14 | CC(=O)Oc1cccc(C(=O)Nc2nnc(-c3ccccc3Cl)s2)c1 | 0.64 µM | 3.03 µM | 23.92 s | 4.5 s | 88.42 s | 0.004 µmol/min/mg | 4.25 | 265.5 µg/mL | 36.33 s | 5.29 U/mg | 77.83 s | 46.83 s | 62.33 s | 23.33 s | – | 2.66 µmol/min | 0.013 µmol | 0.76 nmol
15 | O=C(Nc1nnc(-c2ccccc2Cl)s1)c1cccc(CCl)c1 | 0.66 µM | 3 µM | 22.5 s | 5.25 s | 85.92 s | 0.003 µmol/min/mg | 4.5 | 308.8 µg/mL | 34.58 s | 5.95 U/mg | 76.08 s | 44.75 s | 62.92 s | 24.33 s | – | 1.9 µmol/min | 0.01 µmol | 0.76 nmol
